Laboratory results as given in US11555036B2, “FGFR4 inhibitor, preparation method therefor and pharmaceutical use thereof” (Abbisko Therapeutics Co., Ltd., priority 2016, dated 2023).

What was measured:
FGFR4 = FGFR4 (Homo sapiens, UniProt P22455); test: FGFR4 Caliper Assay (in vitro biochemical kinase analysis of FGFR4); conditions: read-out: Enzymatic activity FGFR4 IC50
Description: I. In Vitro Biochemical Kinase Analysis of FGFR4
FGFR4 Caliper Assay was used in the present invention to determine the inhibitory activities of the compounds against FGFR4. The detailed experimental procedure was as follows.
2. A reaction system is a mixture solution of 50 mM HEPES, pH 7.5, 1 mM DTT, 0.02% Tween 20, 0.02% BSA, 0.6% DMSO, 10 mM beta glycerol phosphate and 10 μM sodium orthovanadate and 16 mM MgCl2.
3. The reaction system was incubated at 30° C. for 40 minutes.
4. The reaction was terminated by adding a stop solution (100 mM HEPES, pH 7.5, 5% DMSO, 0.1% Caliper coating reagent, 10 mM EDTA and 0.015% Brij35).
5. The culture plate with the terminated kinase reaction was transferred to the Caliper LC 3000 workstation to read the data, the phosphorylated and unphosphorylated peptides were separated by using the Caliper microfluid migration shift technique, and the analyte was transferred by allowing a constant buffer flow through the chip, the migration of the substrate peptide was monitored by the labeled fluorescent signal, and the kinase activity was calculated by using the amount of the phosphate-based peptide formed.
6. Finally, IC50 values were determined by non-linear regression analysis of percent inhibition at different compound concentrations.

[1] = test system: Huh7 hepatocellular carcinoma cells; test: FGFR4 cell proliferation experiment, Cell Titer Glo (CTG); type: cell-based; conditions: Homo sapiens, Huh-7, 72 h, HuH-7 cells, 3 days; for IC50: concentration leading to absolute half growth inhibition; for EC50: concentration leading to half maximal growth inhibition
Description: II. FGFR4 Cell Proliferation Experiment
Cell Titer Glo (CTG) experiment was used in the present invention to evaluate the functional effects of the compounds on cell proliferation. […] Compound-mediated inhibition of cell proliferation/survival was assessed by quantification of cellular ATP levels using CTG reagent (Promega, #G7573). The specific experimental procedure was as follows:
2. 10 μL of medium containing a compound concentration of 10 fold of its final test concentration was added;
3. The dose effect was evaluated by a 5-fold serial dilution of the test compound, starting from 10 μM.
4. After cells incubation for 3 days at 37° C. under 5% CO2, the effect of the inhibitor on cell proliferation was quantified after adding 50 μL of CTG and testing with luminescence.

FGFR4, sequence (P22455 22-802): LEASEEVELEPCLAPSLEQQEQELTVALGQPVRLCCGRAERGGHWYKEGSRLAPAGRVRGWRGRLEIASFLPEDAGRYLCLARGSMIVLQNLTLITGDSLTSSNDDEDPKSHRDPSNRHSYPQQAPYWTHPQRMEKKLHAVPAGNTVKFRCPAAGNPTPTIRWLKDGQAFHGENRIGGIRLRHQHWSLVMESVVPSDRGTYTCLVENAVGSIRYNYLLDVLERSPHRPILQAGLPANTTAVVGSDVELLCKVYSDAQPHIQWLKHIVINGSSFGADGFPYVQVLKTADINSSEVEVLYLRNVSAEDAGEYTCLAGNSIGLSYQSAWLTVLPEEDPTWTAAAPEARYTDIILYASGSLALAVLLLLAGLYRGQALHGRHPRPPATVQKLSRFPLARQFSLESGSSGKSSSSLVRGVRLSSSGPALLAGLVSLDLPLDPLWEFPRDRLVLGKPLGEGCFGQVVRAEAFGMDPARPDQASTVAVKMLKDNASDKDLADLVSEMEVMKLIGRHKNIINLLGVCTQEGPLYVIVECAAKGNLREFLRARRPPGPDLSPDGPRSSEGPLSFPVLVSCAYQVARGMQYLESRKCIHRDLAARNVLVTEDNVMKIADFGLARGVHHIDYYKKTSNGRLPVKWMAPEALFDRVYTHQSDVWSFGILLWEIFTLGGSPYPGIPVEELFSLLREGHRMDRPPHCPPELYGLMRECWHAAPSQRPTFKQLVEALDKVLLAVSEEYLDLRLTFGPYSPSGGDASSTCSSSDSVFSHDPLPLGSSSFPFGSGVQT

| IC50 (FGFR4) | IC50 [1] | EC50 [1] | Structure (SMILES) |
| --- | --- | --- | --- |
| 13.6 nM | 54 nM | 18 nM | [2H]C([2H])([2H])Oc1cc(OC([2H])([2H])[2H])c(Cl)c(-c2cc3cnc(N[C@@H]4COC[C@@H]4NC(=O)C=C)nc3c(OCC)n2)c1Cl [Example 754, N-((3R,4S)-4-((6-(2,6-dichloro-3,5-bis(methoxy-d3)phenyl)-8-ethoxy-pyrido[3,4-d]pyrimidin-2-yl)amino)tetra-hydrofuran-3-yl)acrylamide] |
| 115 nM | 194 nM | 164 nM | C=CC(=O)NCc1cc2c(cn1)cc(-c1c(Cl)c(OC)cc(OC)c1Cl)c(=O)n2C [Example 730, N-((3-(2,6-dichloro-3,5-dimethoxyphenyl)-1-methyl-2-oxo-1,2-dihydro-1,6-naphthyridin-7-yl)methyl)acrylamide] |
| 4.8 nM | 15.1 nM | 11.4 nM | C=CC(=O)N[C@H]1COC[C@H]1Nc1ncc2cc(-c3c(Cl)c(OC)cc(OC)c3Cl)nc(N3CC(OC)C3)c2n1 [Example 658, N-((3R,4S)-4-((6-(2,6-dichloro-3,5-dimethoxyphenyl)-8-(3-methoxyazeti-din-1-yl)pyrido[3,4-d]pyrimidin-2-yl)amino)tetrahydrofuran-3-yl)acryl-amide] |
| 519 nM |  |  | C=CC(=O)N[C@H]1COC[C@H]1Nc1ncc2cc(-c3c(Cl)c(OC)cc(OC)c3Cl)nc(NCCN(C)C)c2n1 [Example 431, N-((3R,4S)-4-((6-(2,6-dichloro-3,5-di-methoxyphenyl)-8-((2-(dimethylami-no)ethyl)amino)pyrido[3,4-d]pyrimi-din-2-yl)amino)tetrahydrofuran-3-yl) acrylamide] |
| 82.4 nM | 299 nM | 163 nM | C=CC(=O)N[C@H]1COC[C@H]1Nc1ncc2cc(-c3c(Cl)c(OC)cc(OC)c3Cl)nc(NCCc3ccccc3)c2n1 [Example 456, N-((3R,4S)-4-((6-(2,6-dichloro-3,5-di-methoxyphenyl)-8-(phenethylamino)pyrido[3,4-d]pyrimidin-2-yl)amino)tetrahydrofuran-3-yl)acrylamide] |
| 6.6 nM | 24.3 nM | 18 nM | C=CC(=O)N[C@H]1COC[C@H]1Nc1ncc2cc(-c3c(F)c(OC)cc(OC)c3F)nc(N3CC(OC)C3)c2n1 [Example 659, N-((3R,4S)-4-((6-(2,6-difluoro-3,5-dimethoxyphenyl)-8-(3-methoxyazeti-din-1-yl)pyrido[3,4-d]pyrimidin-2-yl)a-mino)tetrahydrofuran-3-yl)acryl-amide] |
|  | 660 nM | 651 nM | C=CC(=O)N[C@H]1COC[C@H]1Nc1ncc2cc(-c3c(F)ccc(OC)c3F)nc(NC)c2n1 [Example 777, N-((3R,4S)-4-((6-(2,6-difluoro-3-meth-oxyphenyl)-8-(methylamino)pyri-do[3,4-d]pyrimidin-2-yl)amino)tetra-hydrofuran-3-yl)acrylamide] |
| 166 nM | 457 nM | 78.1 nM | C=CC(=O)N[C@H]1CCOC[C@H]1Nc1ncc2cc(-c3c(Cl)c(OC)cc(OC)c3Cl)ncc2n1 [Example 119, N-((3S,4S)-3-((6-(2,6-dichloro-3,5-dimethoxyphenyl)pyrido[3,4-d]pyrimidin-2-yl)amino)tetrahydro-2H-pyran-4-yl)acrylamide] |
| 5.9 nM | 9.2 nM | 5.8 nM | C=CC(=O)N[C@H]1COC[C@H]1Nc1ncc2cc(-c3c(Cl)c(OC)cc(OC)c3Cl)nc(NCC(CO)(CO)CO)c2n1 [Example 758, N-((3R,4S)-4-((6-(2,6-dichloro-3,5-dimethoxypehnyl)-8-((3-hydroxy-2,2-bis(hydroxymethyl)propyl)amino)py-rido[3,4-d]pyrimidin-2-yl)amino)tetra-hydrofuran-3-yl)acrylamide] |
| 8.2 nM | 8.8 nM | 5.4 nM | C=CC(=O)N[C@H]1COC[C@H]1Nc1ncc2cc(-c3c(Cl)c(OC)cc(OC)c3Cl)nc(N3CCOCC3)c2n1 [Example 686, N-((3R,4S)-4-((6-(2,6-dichloro-3,5-dimethoxyphenyl)-8-morpholino-pyrido[3,4-d]pyrimidin-2-yl)amino)tetra-hydrofuran-3-yl)acrylamide] |
| 158 nM | 656 nM | 421 nM | C=CC(=O)N[C@H]1COC[C@H]1Nc1ncc2cc(-c3c(Cl)c(OC)cc(OC)c3Cl)nc(N)c2n1 [Example 765, N-((3R,4S)-4-((8-amino-6-(2,6-di-chloro-3,5-dimethoxyphenyl)pyrido[3,4-d]pyrimidin-2-yl)amino)tetrahydro-furan-3-yl)acrylamide] |
| 18 nM | 126 nM | 27 nM | C=CC(=O)N[C@H]1CCOC[C@H]1Nc1ncc2cc(-c3c(Cl)c(OC)cc(OC)c3Cl)ccc2n1 [BLU-554] |
| 4.6 nM |  |  | C=CC(=O)N[C@H]1COC[C@H]1Nc1ncc2cc(-c3c(Cl)c(OC)cc(OC)c3Cl)nc(NCC3CCOC3)c2n1 (stereo partly drawn) [Example 439, N-((3R,4S)-4-((6-(2,6-dichloro-3,5-di-methoxyphenyl)-8-(((tetrahydrofuran-3-yl)methyl)amino)pyrido[3,4-d]py-rimidin-2-yl)amino)tetrahydrofuran-3-yl)acrylamide] |
| 43 nM |  |  | C=CC(=O)N[C@H]1COC[C@H]1Nc1ncc2cc(-c3c(Cl)c(OC)cc(OC)c3Cl)nc(OCc3cc(OC)cc(OC)c3)c2n1 [Example 755, N-((3R,4S)-4-((6-(2,6-dichloro-3,5-dimethoxyphenyl)-8-((3,5-dimethoxy-benzyl)oxy)pyrido[3,4-d]pyrimidin-2-yl)amino)tetrahydrofuran-3-yl) acrylamide] |
| > 10000 nM |  |  | C=CC(=O)N[C@H]1COC[C@H]1Nc1ncc2cc(-c3c(Cl)c(OC)cc(OC)c3Cl)nc(N(C)C)c2n1 [Example 436, N-((3R,4S)-4-((6-(2,6-dichloro-3,5-di-methoxyphenyl)-8-(dimethylamino)pyrido[3,4-d]pyrimidin-2-yl)amino)tetrahydrofuran-3-yl)acrylamide] |
|  | 1360 nM | 549 nM | C=CC(=O)Nc1cccc(C)c1Nc1ncc2cc(-c3c(Cl)c(OC)cc(OC)c3Cl)ccc2n1 [BLU-9931] |
|  | 56.1 nM | 36.6 nM | C=CC(=O)N[C@H]1COC[C@H]1Nc1ncc2cc(-c3c(Cl)c(OC)cc(OC)c3Cl)nc(C3CC3)c2n1 [Example 609, N-((3R,4S)-4-((8-cyclopropyl-6-(2,6-dichloro-3,5-dimethoxyphenyl)pyri-do[3,4-d]pyrimidin-2-yl)amino)tetra-hydrofuran-3-yl)acrylamide] |
| 7.7 nM |  |  | [2H]C([2H])([2H])Oc1cc(OC([2H])([2H])[2H])c(Cl)c(-c2cc3cnc(N[C@@H]4COC[C@@H]4NC(=O)C=C)nc3c(NCC3CC3)n2)c1Cl [Example 425, N-((3R,4S)-4-((8-((cyclopropylmeth-yl)amino)-6-(2,6-dichloro-3,5-bis(meth-oxy-d3)phenyl)pyrido[3,4-d]pyrimi-din-2-yl)amino)tetrahydrofuran-3-yl)acrylamide] |
| 46.4 nM |  |  | C=CC(=O)N[C@H]1COC[C@H]1Nc1ncc2cc(-c3c(Cl)c(OC)cc(OC)c3Cl)nc(NCCCCN(C)C)c2n1 [Example 465, N-((3R,4S)-4-((6-(2,6-dichloro-3,5-di-methoxyphenyl)-8-((4-(dimethylamino)butyl)amino)pyrido[3,4-d]pyrimi-din-2-yl)amino)tetrahydrofuran-3-yl) acrylamide] |
|  | 8.6 nM | 7.5 nM | C=CC(=O)N[C@H]1COC[C@H]1Nc1ncc2cc(-c3c(Cl)c(OC)cc(OC)c3Cl)nc(N3CC[C@@](C)(O)C3)c2n1 [Example 779, N-((3R,4S)-4-((6-(2,6-dichloro-3,5-dimethoxyphenyl)-8-((R)-3-hydroxy-3-methylpyrrolidin-1-yl)pyrido[3,4-d]pyrimidin-2-yl)amino)tetrahydro-furan-3-yl)acrylamide] |
|  | 11.2 nM | 9.5 nM | C=CC(=O)N[C@H]1COC[C@H]1Nc1ncc2cc(-c3c(Cl)c(OC)cc(OC)c3Cl)nc(N3CC[C@](C)(O)C3)c2n1 [Example 778, N-((3R,4S)-4-((6-(2,6-dichloro-3,5-dimethoxyphenyl)-8-((S)-3-hydroxy-3-methylpyrrolidin-1-yl)pyrido[3,4-d]py-rimidin-2-yl)amino)tetrahydrofuran-3-yl)acrylamide] |
| 7 nM |  |  | C=CC(=O)N[C@H]1COC[C@H]1Nc1ncc2cc(-c3c(Cl)c(OC)cc(OC)c3Cl)nc(NC3CCOCC3)c2n1 [Example 444, N-((3R,4S)-4-((6-(2,6-dichloro-3,5-di-methoxyphenyl)-8-((tetrahydro-2H-pyran-4-yl)amino)pyrido[3,4-d]py-rimidin-2-yl)amino)tetrahydrofuran-3-yl)acrylamide] |
